Measured values from US20210163443A1, “Febrifugine Derivatives” (BRISTOL-MYERS SQUIBB COMPANY, priority 2019, published 2021).
Structures can show the parent of a compound that is named as a salt.

Biological target: T1, human ProRS (prolyl tRNA synthetase moiety of glutamyl prolyl tRNA synthetase, EPRS) (Homo sapiens, UniProt P07814)
T1 construct: The prolyl tRNA synthetase moiety (ProRS) in the cDNA of glutamyl prolyl tRNA synthetase was subcloned; 6xHis (N, cleaved yes); made in house; host or cells: E. coli BL21 (DE3)
T1 sequence (P07814 1007-1512 limits assumed): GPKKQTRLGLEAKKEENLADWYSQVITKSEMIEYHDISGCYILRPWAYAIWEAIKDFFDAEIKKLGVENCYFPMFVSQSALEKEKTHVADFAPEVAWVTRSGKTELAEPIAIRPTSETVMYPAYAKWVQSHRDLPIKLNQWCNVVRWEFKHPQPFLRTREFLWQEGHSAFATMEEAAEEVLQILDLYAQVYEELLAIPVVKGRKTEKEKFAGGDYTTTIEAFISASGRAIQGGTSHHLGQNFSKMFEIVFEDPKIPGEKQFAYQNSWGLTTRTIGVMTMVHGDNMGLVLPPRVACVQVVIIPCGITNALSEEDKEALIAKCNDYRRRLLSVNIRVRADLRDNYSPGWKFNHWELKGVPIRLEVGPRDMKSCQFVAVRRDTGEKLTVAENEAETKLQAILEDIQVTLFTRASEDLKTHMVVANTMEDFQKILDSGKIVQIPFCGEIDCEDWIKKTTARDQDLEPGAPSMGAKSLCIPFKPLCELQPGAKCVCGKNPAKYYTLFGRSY
Test: Assay for inhibitors of prolyl tRNA synthetase activity (ProRS assay, labeled proline incorporation)
Type: biochemical
Conditions: human ProRS 20 nM, 10 min at 37° C.; read-out: EPRS IC50
From the text: In order to establish the activities of the compounds highlighted above, we determined extent of inhibition of prolyl tRNA synthetase activity in dose response curves to obtain IC50 values.
The prolyl tRNA synthetase moiety (ProRS) in the cDNA of glutamyl prolyl tRNA synthetase was subcloned, tagged with a single biotin, purified and used in the assay.
Briefly, human ProRS with a 6×N-terminal His tag in pET28N with TVMV BioP was transformed in E. coli BL21 (DE3) cells, selected, overexpressed and purified using a Ni Seph 6 FF XK 16/20 column in the first stage. Ni-NTA eluates were pooled and treated with TVMV protease, and biotinylated using d-Biotin, MgCl2, ATP and the BirA enzyme. This was rerun through a Ni column as before. The eluates were further enriched and purified using membrane ultrafiltration and a SuperDex 200 XK 16/60 column, and peak fractions were confirmed by SDS-PAGE prior to protein amount determination, aliquoting and storage at −80° C. • ProRS assay was performed in 96 well plates in a final reaction volume of 20 μl, using staggered additions of Tris-Cl (pH 7.5, 60 mM), dithiothreitol (2 mM), ATP (5 mM, pH 7.0), MgCl2 6 mM), ProRS (20 nM, with pre-determined active fraction range) and bovine tRNA (20 μg). Controls and compounds, at various concentrations (10 μM to 0.5 nM), were incubated on ice with enzyme mix for 15 min followed by addition of proline (non-labeled and labeled, 3.96 and 1.04 μM (1 μCi) respectively) to initiate the reaction. Reaction was carried out for 10 min at 37° C. and terminated by addition of TCA (10%, 100 μl). Reaction mix was collected on a Whatman GF/B filter using a vacuum filtration manifold. This filter was washed 3 times with 5% TCA followed by 2 washes with ethanol, air dried, and read using a liquid scintillation counter (TopCount NXT) using MicroScint O. IC50 values were calculated and analyzed using ToolSet (4-parameter plot) and depicted herein.

Row | SMILES | IC50 [nM]
1 | O=C(C[C@H]1NCCC[C@@H]1O)Cn1cnc2cccc(-c3cccnc3)c2c1=O [Example 28, 3-{3-[(2R,3S)-3-Hydroxypiperidin-2-yl]-2-oxopropyl}-5-(pyridin-3-yl)quinazolin-4(3H)-one dihydrochloride] | 6
2 | Cc1ccc(C(F)(F)F)c2c(=O)n(CC(=O)C[C@H]3NCCC[C@@H]3O)cnc12 [Example 29, 3-{3-[(2R,3S)-3-Hydroxypiperidin-2-yl]-2-oxopropyl}-8-methyl-5-(trifluoromethyl)quinazolin-4(3H)-one hydrochloride] | 313
3 | Cc1cc(F)cc2c(=O)n(C[C@@H](O)C[C@H]3NCCC[C@@H]3O)cnc12 [Example 34, 6-Fluoro-3-{(S)-2-hydroxy-3-[(2R,3S)-3-hydroxypiperidin-2-yl]propyl}-8-methylquinazolin-4(3H)-one hydrochloride] | 183
4 | Cl.[2H]C([2H])([2H])c1cc(Cl)cc2c(=O)n(C[C@@H](O)C[C@H]3NCCC[C@@H]3O)cnc12 [Example 35, 6-Chloro-3-{(S)-2-hydroxy-3-[(2R,3S)-3-hydroxypiperidin-2-yl]propyl}-8-(methyl-d3)quinazolin-4(3H)-one hydrochloride] | 32
5 | Cc1c(Cl)ccc2c(=O)n(C[C@@H](O)C[C@H]3NCCC[C@@H]3O)cnc12 [Example 36, 7-Chloro-3-{(S)-2-hydroxy-3-[(2R,3S)-3-hydroxypiperidin-2-yl]propyl}-8-methylquinazolin-4(3H)-one hydrochloride] | 429
6 | Cc1cc(Br)cc2c(=O)n(C[C@@H](O)C[C@H]3NCCC[C@@H]3O)cnc12 [Example 37, 6-Bromo-3-{(S)-2-hydroxy-3-[(2R,3S)-3-hydroxypiperidin-2-yl]propyl}-8-methylquinazolin-4(3H)-one hydrochloride] | 62
7 | CCc1cc(Cl)cc2c(=O)n(C[C@@H](O)C[C@H]3NCCC[C@@H]3O)cnc12 [Example 38, 6-Chloro-8-ethyl-3-{(S)-2-hydroxy-3-[(2R,3S)-3-hydroxypiperidin-2-yl]propyl}quinazolin-4(3H)-one hydrochloride] | 506
8 | Cc1cc(C)c2ncn(C[C@@H](O)C[C@H]3NCCC[C@@H]3O)c(=O)c2c1 [Example 39, 3-{(S)-2-Hydroxy-3-[(2R,3S)-3-hydroxypiperidin-2-yl]propyl}-6,8-dimethylquinazolin-4(3H)-one hydrochloride] | 158
9 | CCc1cc(C)c2ncn(C[C@@H](O)C[C@H]3NCCC[C@@H]3O)c(=O)c2c1 [Example 41, 6-Ethyl-3-{(S)-2-hydroxy-3-[(2R,3S)-3-hydroxypiperidin-2-yl]propyl}-8-methylquinazolin-4(3H)-one hydrochloride] | 23
10 | Cc1cc(OC(F)(F)F)cc2c(=O)n(C[C@@H](O)C[C@H]3NCCC[C@@H]3O)cnc12 [Example 42, 3-{(S)-2-Hydroxy-3-[(2R,3S)-3-hydroxypiperidin-2-yl]propyl}-8-methyl-6-(trifluoromethoxy)quinazolin-4(3H)-one hydrochloride] | 20
11 | Cc1cc(S(C)(=O)=O)cc2c(=O)n(C[C@@H](O)C[C@H]3NCCC[C@@H]3O)cnc12 [Example 43, 3-{(S)-2-Hydroxy-3-[(2R,3S)-3-hydroxypiperidin-2-yl]propyl}-8-methyl-6-(methylsulfonyl)quinazolin-4(3H)-one hydrochloride] | 38
12 | Cc1cc(C(F)(F)F)cc2c(=O)n(C[C@@H](O)C[C@H]3NCCC[C@@H]3O)cnc12 [Example 44, 3-{(S)-2-Hydroxy-3-[(2R,3S)-3-hydroxypiperidin-2-yl]propyl}-8-methyl-6-trifluoromethyl)quinazolin-4(3H)-one hydrochloride] | 20
13 | Cc1cc(C(C)C)cc2c(=O)n(C[C@@H](O)C[C@H]3NCCC[C@@H]3O)cnc12 [Example 45, 3-{(S)-2-Hydroxy-3-[(2R,3S)-3-hydroxypiperidin-2-yl]propyl}-6-isopropyl-8-methylquinazolin-4(3H)-one hydrochloride] | 21
14 | Cc1cc(C2CC2)cc2c(=O)n(C[C@@H](O)C[C@H]3NCCC[C@@H]3O)cnc12 [Example 46, 6-Cyclopropyl-3-{(S)-2-hydroxy-3-[(2R,3S)-3-hydroxypiperidin-2-yl]propyl}-8-methylquinazolin-4(3H)-one hydrochloride] | 34
15 | Cc1cc(C#N)cc2c(=O)n(C[C@@H](O)C[C@H]3NCCC[C@@H]3O)cnc12 [Example 47, 3-{(S)-2-Hydroxy-3-[(2R,3S)-3-hydroxypiperidin-2-yl]propyl}-8-methyl-4-oxo-3,4-dihydroquinazoline-6-carbonitrile hydrochloride] | 235
16 | Cl.O=c1c2c(-c3cccc(F)c3)cccc2ncn1C[C@@H](O)C[C@H]1NCCC[C@@H]1O [Example 49, 5-(3-Fluorophenyl-3-{(S)-2-hydroxy-3-[(2R,3S)-3-hydroxypiperidin-2-yl]propyl}quinazolin-4(3H)-one hydrochloride] | 41
17 | O=c1c2cc(-c3cccc(F)c3)ccc2ncn1C[C@@H](O)C[C@H]1NCCC[C@@H]1O [Example 50, 6-(3-Fluorophenyl)-3-{(S)-2-hydroxy-3-[(2R,3S)-3-hydroxypiperidin-2-yl]propyl}quinazolin-4(3H)-one hydrochloride] | 14
18 | O=c1c2cc(-c3cccc(Cl)c3)ccc2ncn1C[C@@H](O)C[C@H]1NCCC[C@@H]1O [Example 51, 6-(3-Chlorophenyl)-3-{(S)-2-hydroxy-3-[(2R,3S)-3-hydroxypiperidin-2-yl]propyl}quinazolin-4(3H)-one hydrochloride] | 23
19 | O=c1c2cc(-c3cccc(C(F)(F)F)c3)ccc2ncn1C[C@@H](O)C[C@H]1NCCC[C@@H]1O [Example 52, 3-{(S)-2-hydroxy-3-[(2R,3S)-3-hydroxypiperidin-2-yl]propyl}-6-(3-(trifluoromethyl)phenyl)quinazolin-4(3H)-one hydrochloride] | 40
20 | Cc1cc(-c2cccc(F)c2)cc2c(=O)n(C[C@@H](O)C[C@H]3NCCC[C@@H]3O)cnc12 [Example 53, 6-(3-Fluorophenyl)-3-{(S)-2-hydroxy-3-[(2R,3S)-3-hydroxypiperidin-2-yl]propyl}-8-methylquinazolin-4(3H)-one hydrochloride] | 9
21 | Cc1cc(-c2cccc(C(F)(F)F)c2)cc2c(=O)n(C[C@@H](O)C[C@H]3NCCC[C@@H]3O)cnc12 [Example 54, 3-{(S)-2-Hydroxy-3-[(2R,3S)-3-hydroxypiperidin-2-yl]propyl}-8-methyl-6-(3-(trifluoromethyl)phenyl)quinazolin-4(3H)-one hydrochloride] | 31
22 | Cc1cc(-c2cccnc2)cc2c(=O)n(C[C@@H](O)C[C@H]3NCCC[C@@H]3O)cnc12 [Example 55, 3-{(S)-2-Hydroxy-3-[(2R,3S)-3-hydroxypiperidin-2-yl]propyl}-8-methyl-6-(pyridin-3-yl)quinazolin-4(3H)-one dihydrochloride] | 11
23 | Cc1cc(-c2ccc(F)c(F)c2)cc2c(=O)n(C[C@@H](O)C[C@H]3NCCC[C@@H]3O)cnc12 [Example 56, 6-(3,4-Difluorophenyl)-3-{(S)-2-hydroxy-3-[(2R,3S)-3-hydroxypiperidin-2-yl]propyl}-8-methylquinazolin-4(3H)-one hydrochloride] | 4
24 | Cc1cc(C2CCOCC2)cc2c(=O)n(C[C@@H](O)C[C@H]3NCCC[C@@H]3O)cnc12 [Example 57, 3-{(S)-2-Hydroxy-3-[(2R,3S)-3-hydroxypiperidin-2-yl]propyl}-8-methyl-6-(tetrahydro-2H-pyran-4-yl)quinazolin-(3H)-one hydrochloride] | 52
25 | Cc1cc(N2CCCC2)cc2c(=O)n(C[C@@H](O)C[C@H]3NCCC[C@@H]3O)cnc12 [Example 58, 3-{(S)-2-Hydroxy-3-[(2R,3S)-3-hydroxypiperidin-2-yl]propyl}-8-methyl-6-(pyrrolidin-1-yl)quinazolin-4(3H)-one dihydrochloride] | 321
